According to ChEMBL document CHEMBL4699602, “Stapled and Xenopus Glucagon-Like Peptide 1 (GLP-1)-Based Dual GLP-1/Gastrin Receptor Agonists with Improved Metabolic Benefits in Rodent Models of Obesity and Diabetes” (J Med Chem, 2020):
The source made the active and inactive calls. No cut-off for these calls is given here. *1 amine or outer side, *2 acyl side, *3 side chain or, on linkers, in order; H or OH if unused. Bridges are numbered along the chain shown (N, C = ends). [ ]: non-standard residue; d: D form. X1 = CCCCCCCCCCCCCCCC(=O)NCCCCCCNC(=O)C(CCCCNC(=O)CCN1C(=O)CC([*:1])C1=O)NC(=O)CCN1C(=O)CC([*:2])C1=O; AEEA = NCCOCCOCC(=O)O; Aib = CC(C)(N)C(=O)O

Key:
[1] = system: Mus musculus; assay: Hypoglycemic activity in db/db mouse assessed as decrease in glucose excursion at 25 nmol/kg, ip dosed 30 mins before test and measured up to 120 mins by OGTT method; assay type: functional, organism-based; conditions: time 150.0 min
[2] = molecular target: Glucagon-like peptide 1 receptor (Homo sapiens, UniProt P43220); assay: Agonist activity at human GLP-1R expressed in HEK293 cells assessed as stimulation of cAMP accumulation incubated for 20 mins; assay type: functional, cell-based
Sequence of Glucagon-like peptide 1 receptor (P43220 whole entry): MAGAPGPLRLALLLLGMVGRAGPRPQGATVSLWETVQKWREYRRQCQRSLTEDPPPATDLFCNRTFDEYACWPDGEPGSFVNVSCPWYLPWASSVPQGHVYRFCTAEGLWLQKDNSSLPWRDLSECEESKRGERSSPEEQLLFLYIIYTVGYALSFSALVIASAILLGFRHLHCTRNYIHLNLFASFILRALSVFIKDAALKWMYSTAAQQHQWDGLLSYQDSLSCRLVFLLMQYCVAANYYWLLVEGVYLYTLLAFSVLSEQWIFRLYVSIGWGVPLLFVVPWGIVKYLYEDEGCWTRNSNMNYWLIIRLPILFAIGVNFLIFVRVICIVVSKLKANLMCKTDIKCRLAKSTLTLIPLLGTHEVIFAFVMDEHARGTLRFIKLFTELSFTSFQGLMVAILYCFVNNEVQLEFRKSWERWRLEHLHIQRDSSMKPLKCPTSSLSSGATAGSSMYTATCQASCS

[3] = molecular target: T1, Cholecystokinin receptor type A (Homo sapiens, UniProt P32238); assay: Agonist activity at human CCK-1R expressed in HEK293 cells assessed as stimulation of ERK phosphorylation incubated for 5 mins; assay type: cell-based
T1 sequence (P32238 whole entry): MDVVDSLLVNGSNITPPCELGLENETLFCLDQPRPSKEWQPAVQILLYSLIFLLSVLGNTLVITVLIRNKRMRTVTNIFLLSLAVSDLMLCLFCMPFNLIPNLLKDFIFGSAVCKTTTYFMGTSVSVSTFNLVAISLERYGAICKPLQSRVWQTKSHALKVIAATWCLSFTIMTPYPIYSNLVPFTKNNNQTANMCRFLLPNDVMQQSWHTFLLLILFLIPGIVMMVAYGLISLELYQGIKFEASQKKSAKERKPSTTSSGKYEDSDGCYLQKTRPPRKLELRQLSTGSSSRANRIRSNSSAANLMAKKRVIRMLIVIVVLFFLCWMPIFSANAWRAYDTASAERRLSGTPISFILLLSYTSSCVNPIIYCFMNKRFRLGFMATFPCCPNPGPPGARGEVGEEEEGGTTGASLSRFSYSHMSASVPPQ

[4] = molecular target: T2, Gastrin/cholecystokinin type B receptor (Homo sapiens, UniProt P32239); assay: Agonist activity at human CCK-2R expressed in HEK293 cells assessed as stimulation of ERK phosphorylation incubated for 5 mins; assay type: cell-based
T2 sequence (P32239 whole entry): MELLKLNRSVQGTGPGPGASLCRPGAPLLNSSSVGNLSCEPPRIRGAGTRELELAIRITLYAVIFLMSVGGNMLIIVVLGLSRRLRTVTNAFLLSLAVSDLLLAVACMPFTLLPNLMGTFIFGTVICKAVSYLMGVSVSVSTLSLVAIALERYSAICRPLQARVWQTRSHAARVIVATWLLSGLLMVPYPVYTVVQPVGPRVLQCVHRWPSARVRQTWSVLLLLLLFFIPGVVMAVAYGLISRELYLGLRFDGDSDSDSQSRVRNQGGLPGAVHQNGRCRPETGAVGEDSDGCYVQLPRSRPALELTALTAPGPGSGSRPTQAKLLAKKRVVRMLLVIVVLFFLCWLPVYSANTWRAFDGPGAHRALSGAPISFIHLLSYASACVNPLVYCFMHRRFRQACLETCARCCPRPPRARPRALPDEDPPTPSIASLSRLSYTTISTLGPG

[5] = system: Mus musculus; assay: Hypoglycemic activity in db/db mouse assessed as improvement in glucose tolerance at 25 nmol/kg, ip dosed 30 mins before test and measured up to 120 mins by OGTT method; assay type: functional, organism-based; conditions: time 150.0 min
[6] = system: Mus musculus; assay: Insulinotropic activity in db/db mouse assessed as improvement in plasma insulin level at 25 nmol/kg, ip dosed 30 mins before test and measured up to 60 mins by OGTT method; assay type: functional, organism-based; conditions: time 90.0 min
[7] = Half life in ICR mouse at 50 nmol/kg, sc up to 24 hrs by LC-MS/MS analysis; assay type: ADME, organism-based; conditions: in vivo
[8] = Tmax in ICR mouse at 50 nmol/kg, sc up to 24 hrs by LC-MS/MS analysis; assay type: ADME, organism-based; conditions: in vivo
[9] = AUC (0 to infinity) in ICR mouse at 50 nmol/kg, sc up to 24 hrs by LC-MS/MS analysis; assay type: ADME, organism-based; set-up: route subcutaneous, dose 50 nmol/kg, time <=24; conditions: in vivo
[10] = system: Mus musculus; assay: Hypoglycemic activity in non-fasted db/db mouse assessed as improvement in glucose tolerance at dosed intraperitoneally 30 mins before test and measured up to 120 mins by OGTT method; assay type: functional, organism-based; conditions: time 150.0 min
[11] = system: Mus musculus; assay: […] activity in non-fasted db/db mouse assessed as improvement in glucose tolerance at dosed intraperitoneally 30 mins before test and measured up to 120 mins by OGTT method; assay type: functional, organism-based; conditions: time 150.0 min
[12] = system: Mus musculus; assay: Inhibition of liquid-phase gastric emptying in 6 hrs fasted ICR mouse assessed as reduction in blood acetaminophen concentration at 25 nmol/kg, ip dosed 30 mins before acetaminophen dosing by LC-MS/MS analysis; assay type: functional, organism-based
[13] = system: Mus musculus; assay: Inhibition of solid-phase gastric emptying in fasted ICR mouse at 25 nmol/kg, ip measured after 4 hrs by LC-MS/MS analysis; assay type: functional, organism-based
[14] = Toxicity in Sprague-Dawley rat assessed as induction of kaolin intake at 25 nmol/kg, ip after 24 hrs by Kaolin consumption test; assay type: organism-based; conditions: in vivo
[15] = system: Rattus norvegicus; assay: Reduction of food intake in Sprague-Dawley rat at 25 nmol/kg, ip after 24 hrs; assay type: functional, organism-based
[16] = Toxicity in Sprague-Dawley rat assessed as induction of kaolin intake at 25 nmol/kg, sc BID for 10 days by Kaolin consumption test; assay type: organism-based; conditions: in vivo, 240 h, time 10 day
[17] = system: Rattus norvegicus; assay: Reduction of food intake in Sprague-Dawley rat at 25 nmol/kg, sc BID for 12 days; assay type: functional, organism-based; conditions: time 12.0 day
[18] = system: INS1; assay: Toxicity in rat INS1 cells assessed as reduction cell viability up to 1000 nM after 24 hrs by MTT assay; assay type: cell-based; conditions: ins1, 24 h
[19] = system: INS1; assay: Protection against glucotoxicity in rat INS1 cells assessed as recovery of cell viability after 24 hrs in presence of glucotoxicity media by MTT assay; assay type: functional, cell-based
[20] = Hepatotoxicity in ICR mouse assessed as effect on aspartate aminotransferase level at 1000 nmol/kg, sc BID for 14 days; assay type: toxicity, organism-based; conditions: in vivo, 336 h, time 14 day
[21] = Hepatotoxicity in ICR mouse assessed as effect on alanine aminotransferase level at 1000 nmol/kg, sc BID for 14 days; assay type: toxicity, organism-based; conditions: in vivo, 336 h, time 14 day
[22] = Renal toxicity in ICR mouse assessed as effect on serum creatinine level at 1000 nmol/kg, sc BID for 14 days; assay type: organism-based; conditions: in vivo, 336 h, time 14 day
[23] = Renal toxicity in ICR mouse assessed as effect on blood urea nitrogen level at 1000 nmol/kg, sc BID for 14 days; assay type: organism-based; conditions: in vivo, 336 h, time 14 day
[24] = system: Mus musculus; assay: Reduction in body weight in C57BL/6 mouse model of high-fat diet induced obesity at 25 nmol/kg, sc BID for 21 days relative to control; assay type: functional; set-up: scale not given: the % may be the effect or the level left; conditions: time 21 day
[25] = system: Mus musculus; assay: Reduction in body fat content in C57BL/6 mouse model of high-fat diet induced obesity at 25 nmol/kg, sc BID for 21 days relative to control; assay type: functional; set-up: scale not given: the % may be the effect or the level left; conditions: time 21 day
[26] = system: Mus musculus; assay: Reduction in fasting blood glucose in C57BL/6 mouse model of high-fat diet induced obesity at 25 nmol/kg, sc BID for 21 days relative to control; assay type: functional, organism-based; conditions: time 21.0 day
[27] = system: Mus musculus; assay: Improvement in glucose tolerance in C57BL/6 mouse model of high-fat diet induced obesity at 25 nmol/kg, sc BID for 21 days relative to control; assay type: functional, organism-based; conditions: time 21.0 day
[28] = system: Mus musculus; assay: Reduction in serum cholesterol in C57BL/6 mouse model of high-fat diet induced obesity at 25 nmol/kg, sc BID for 21 days relative to control; assay type: functional, organism-based; conditions: time 21.0 day
[29] = system: Mus musculus; assay: Reduction in serum triglyceride in C57BL/6 mouse model of high-fat diet induced obesity at 25 nmol/kg, sc BID for 21 days relative to control; assay type: functional, organism-based; conditions: time 21.0 day
[30] = system: Mus musculus; assay: Reduction in cumulated food intake in db/db mouse at 25 nmol/kg, sc BID for 21 days relative to control; assay type: functional, organism-based; conditions: time 21.0 day
[31] = system: Mus musculus; assay: Reduction in body weight gain in db/db mouse at 25 nmol/kg, sc BID for 21 days relative to control; assay type: functional, organism-based; conditions: time 21.0 day
[32] = system: Mus musculus; assay: Improvement in fasted blood glucose level in db/db mouse at 25 nmol/kg, sc BID for 21 days relative to control; assay type: functional, organism-based; conditions: time 21.0 day
[33] = system: Mus musculus; assay: Improvement in HbA1c level in db/db mouse at 25 nmol/kg, sc BID for 21 days relative to control; assay type: functional, organism-based; conditions: time 21.0 day
[34] = system: Mus musculus; assay: Improvement in pancreatic beta cell area level in db/db mouse at 25 nmol/kg, sc BID for 21 days relative to control; assay type: functional, organism-based; conditions: time 21.0 day
[35] = system: Mus musculus; assay: Inhibition of pancreatic non-beta cell area (alpha-cell) level in db/db mouse at 25 nmol/kg, sc BID for 21 days relative to control; assay type: functional, organism-based; conditions: time 21.0 day
[36] = system: Mus musculus; assay: Improvement in pancreatic islet area and number level in db/db mouse at 25 nmol/kg, sc BID for 21 days relative to control; assay type: functional, organism-based; conditions: time 21.0 day
[37] = system: Mus musculus; assay: Improvement in insulin content in db/db mouse at 25 nmol/kg, sc BID for 21 days relative to control; assay type: functional, organism-based; conditions: time 21.0 day
[38] = system: Mus musculus; assay: Improvement in glucose tolerance in db/db mouse at 25 nmol/kg, sc BID for 6 weeks followed by another 6 week saline treatment relative to control; assay type: functional, organism-based
[39] = system: Mus musculus; assay: Improvement in fasted blood glucose level in db/db mouse at 25 nmol/kg, sc BID for 6 weeks followed by another 6 week saline treatment relative to control; assay type: functional, organism-based
[40] = system: Mus musculus; assay: Reduction in Hb1Ac level in db/db mouse at 25 nmol/kg, sc BID for 6 weeks followed by another 6 week saline treatment relative to control; assay type: functional, organism-based

Substance | Activity [1] | EC50 [2] | EC50 [3] | EC50 [4] | Activity [5] | Activity [6] | half-life [7] | Tmax [8] | AUC(0-inf) [9] | Activity [10] | Activity [11] | inhibition [12] | inhibition [13] | Activity [14] | Activity [15] | Activity [16] | Activity [17] | Activity [18] | Activity [19] | Activity [20] | other results
H-H[Aib]EGTYTNDVTEYCEEEAAKCFIEWLIKGKPSSGAPPPS[AEEA][AEEA]YGWLDF-NH2 (linker 14-21 via X1) | Active | 0.022 nM | > 1000 nM | 7.3 nM | Active | Active | 4.4 h | 4 h | 15900 ng·h/mL | Dose-dependent effect | Dose-dependent effect | Active | Active | Non-Toxic | Active | Non-Toxic | Active | Non-Toxic | Dose-dependent effect | Non-Toxic | Activity [21]: Non-Toxic; Activity [22]: Non-Toxic; Activity [23]: Non-Toxic; Activity [24]: 26.3%; Activity [25]: 32.2%; Activity [26]: Active; Activity [27]: Active; Activity [28]: Active; Activity [29]: Active; Activity [30]: Active; Activity [31]: Active; Activity [32]: Active; Activity [33]: Active; Activity [34]: Active; inhibition [35]: Active; Activity [36]: Active; Activity [37]: Active; Activity [38]: Active; Activity [39]: Active; Activity [40]: Active
H-H[Aib]EGTYTNDVTEYLEEEAAKCFIEWLICGKPSSGAPPPS[AEEA][AEEA]YGWLDF-NH2 (linker 21-28 via X1) | Active | 0.041 nM | > 1000 nM | 8.8 nM | Active | Active | 4.7 h | 4 h | 19600 ng·h/mL | Dose-dependent effect | Dose-dependent effect | Active | Active | Non-Toxic | Active | Non-Toxic | Active | Non-Toxic | Dose-dependent effect | Non-Toxic | Activity [21]: Non-Toxic; Activity [22]: Non-Toxic; Activity [23]: Non-Toxic; Activity [24]: 24%; Activity [25]: 30.4%; Activity [26]: Active; Activity [27]: Active; Activity [28]: Active; Activity [29]: Active; Activity [30]: Active; Activity [31]: Active; Activity [32]: Active; Activity [33]: Active; Activity [34]: Active; inhibition [35]: Active; Activity [36]: Active; Activity [37]: Active; Activity [38]: Active; Activity [39]: Active; Activity [40]: Active
